For orientation: EC50 means the concentration at which the effect is half-maximal.

In patent US20240132467A1, “BENZIMIDAZOLE DERIVATIVES FOR TREATING RESPIRATORY DISEASE” (TMEM16A Limited, priority 2020, published 2024) one finds activation and EC50 data, which are given here for ten molecules.

Structures are written as SMILES.

The target in this assay is T1, human TMEM16A (TMEM16Aabc variant) (Homo sapiens, UniProt Q5XXA6, DEL476-501).
T1 sequence (Q5XXA6 with tags, fused parts or gaps isoform Q5XXA6-5 DEL539-564): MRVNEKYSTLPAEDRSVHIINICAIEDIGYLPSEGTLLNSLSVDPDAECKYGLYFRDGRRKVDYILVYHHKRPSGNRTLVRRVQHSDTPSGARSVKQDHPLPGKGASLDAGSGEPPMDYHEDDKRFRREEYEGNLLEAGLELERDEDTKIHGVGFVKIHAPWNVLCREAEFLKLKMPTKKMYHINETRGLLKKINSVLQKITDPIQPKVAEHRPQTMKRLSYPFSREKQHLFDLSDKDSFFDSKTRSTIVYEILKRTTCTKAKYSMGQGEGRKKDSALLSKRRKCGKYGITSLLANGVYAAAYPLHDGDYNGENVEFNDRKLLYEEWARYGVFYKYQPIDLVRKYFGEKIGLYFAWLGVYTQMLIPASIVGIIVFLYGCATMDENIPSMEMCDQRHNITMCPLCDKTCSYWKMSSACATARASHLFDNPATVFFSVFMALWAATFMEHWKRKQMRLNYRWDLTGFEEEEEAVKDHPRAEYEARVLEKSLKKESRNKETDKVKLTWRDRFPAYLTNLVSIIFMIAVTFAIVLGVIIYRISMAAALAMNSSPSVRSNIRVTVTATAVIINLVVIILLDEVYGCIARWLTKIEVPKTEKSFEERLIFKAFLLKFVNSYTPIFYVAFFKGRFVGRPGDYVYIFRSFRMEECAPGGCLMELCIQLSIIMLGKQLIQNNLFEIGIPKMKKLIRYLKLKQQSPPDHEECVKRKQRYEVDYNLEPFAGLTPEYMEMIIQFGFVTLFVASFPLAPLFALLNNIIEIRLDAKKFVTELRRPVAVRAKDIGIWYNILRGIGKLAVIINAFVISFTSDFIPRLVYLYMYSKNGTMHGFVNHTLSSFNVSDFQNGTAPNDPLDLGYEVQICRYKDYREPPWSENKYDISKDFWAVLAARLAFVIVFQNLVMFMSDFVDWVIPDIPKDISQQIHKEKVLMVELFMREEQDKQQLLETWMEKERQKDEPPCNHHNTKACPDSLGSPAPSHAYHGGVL
Briefly: Automated whole-cell patch clamp (Qpatch) TMEM16A potentiator assay in FRT cells stably expressing human TMEM16A. Particulars: for activation at 3.33 µM: 3.33 μM test compound, percentage increase of baseline TMEM16A current at +70 mV, intracellular calcium at EC20, read-out: % Potentiation @ 3.33 μM Avg; for EC50: cumulative concentration response, 5 min per concentration, whole-cell patch clamp. Type of assay: cell-based. The procedure: Automated whole-cell patch clamp assay to detect TMEM16A activity in recombinant cells Cell culture and preparation
Fisher rat thyroid (FRT) cells stably expressing human TMEM16A (TMEM16Aabc variant; Dr Luis Galietta, Insituto Giannina, Italy) were cultured in T-75 flasks in Hams F-12 media with Coon's modification (Sigma) supplemented with 10% (v/v) foetal bovine serum, penicillin-streptomycin (10,000 U/mL/10000 μg/mL), G-418 (750μg/mL), L-glutamine (2 mM) and sodium bicarbonate solution (7.5% v/v). At —90% confluence cells were harvested for experiments by detachment with a 2:1 (v/v) mixture of Detachin (BMS Biotechnology) and 0.25% (w/v) trypsin-EDTA. Cells were diluted to a density of 3.5-4.5×10^6 cells/mL with media consisting of CHO-S-SFM II (Sigma), 25 mM HEPES (Sigma) and Soy bean trypsin inhibitor (Sigma).
Whole-Cell Patch Clamp Recording
FRT-TMEM16A cells were whole-cell patch clamped using an automated planar patch clamp system (Qpatch, Sophion). Briefly, once high resistance (GOhm) seals were established between the cells and the planar recording array the patch was ruptured using suction pulses to establish the whole-cell recording configuration of the patch clamp technique. The assay employed the following solutions (all reagents Sigma):
Intracellular solution (mM): N-methyl-D-glucamine 130, CaCl2 18.2, MgCl2 1, HEPES 10, EGTA 10, BAPTA 20, Mg-ATP 2, pH 7.25, 325mOsm with sucrose.
Extracellular solution (mM): N-methyl-D-glucamine 130, CaCl2 2, MgCl2 1, HEPES 10, pH 7.3, 320 mOsm with sucrose.
The intracellular solution buffers intracellular calcium at levels required to give —20% activation of the maximal TMEM16A mediated current (EC20 for calcium ions). Cells were voltage clamped at a holding potential of -70mV and a combined voltage step (to +70 mV)/ramp (−90 my to +90 mV) was applied at 0.05 Hz. After a period of current stabilisation test compounds, solubilised in 100% (v/v) DMSO and subsequently diluted into extracellular solution, were applied to generate a cumulative concentration response curve. Each concentration of test compound was incubated for 5 minutes before addition of the next concentration. After the final concentration was tested a supramaximal concentration of either a known active positive modulator or the TMEM16A inhibitor, CaCCinhA01 (Del La Fuente et al, 2008) was added to define the upper and lower limits of the assay.
Compound activity was quantified by measuring the increase in current upon compound addition and expressing this as a percentage increase of baseline TMEM16A current level. Percentage increases in current were determined for each concentration and the data plotted as a function of concentration using either the Qpatch software or Graphpad Prism v6.05 providing the concentration which gave 50% of its maximal effect (EC50) and maximum efficacy (percentage of baseline increase).
In FIG. 1, IBL equals baseline current, km equals the peak current during test compound concentration 1 incubation period and so on.
Peak TMEM16A current at +70mV was plotted as a function of time over the assay period. Baseline current (IBL) was measured after a period of stabilisation. The increase in current for each compound addition was determined by taking the peak current during the incubation period and subtracting the current from the previous recording period and then expressing this as a percentage of the baseline current. For test compound concentration 1 in FIG. 1 this is:
For each additional concentration tested the increase in current was determined by subtracting the current from the previous incubation period and normalising the baseline value—for test concentration 2 in FIG. 1 this is:
The values for each test concentration were plotted as a cumulative function of concentration e.g. for test concentration two this would be the sum of the peak changes measured during concentration one plus concentration two.
(The patch-clamp technique gives a direct electrical read-out from membranes.)

Turning to `O=C(CC1C2CC3CC(C2)CC1C3)Nc1ccc2[nH]c(C(O)c3ccccc3)nc2c1` (centres unmarked) [Example 2.5, 2-(2-Adamantyl)-N-12-[hydroxy(phenyl)methyl]-1H-benzimidazol-5-yljacetamide], the activation at 3.33 µM was 58.9% and the EC50 stood at 150 nM.

Regarding `O=C(CC1CCCCC1)Nc1ccc2[nH]c(-c3ccccc3)nc2c1` [Example 3.1, 2-Cyclohexyl-N-(2-phenyl-1H-benzimidazol-5-yl)acetamide], the activation at 3.33 µM is 74% and the EC50 came out at 287 nM.

For the molecule `O=C(Nc1ccc2[nH]c(Cc3ccccc3)nc2c1)C12CC3CC(CC(C3)C1)C2` [Example 3.2, N-(2-Benzyl-1H-benzimidazol-5-yl)adamantane-1-carboxamide], the activation at 3.33 µM was determined as 58.5% and the EC50 is 332 nM.

For `O=C(NCC1CCCCCC1)c1cc(F)c2[nH]c(Cc3cccc(O)c3)nc2c1` [Example 3.3, N-(Cycloheptylmethyl)-7-fluoro-2-[(3-hydroxyphenyl)methyl]-1H-benzimidazole-5-carboxamide], the activation at 3.33 µM was determined as 114% and the EC50 is 554 nM.

Consider `O=C(NCC1CCCCCC1)c1cc2nc(Cc3cccc(O)c3)[nH]c2cc1F` [Example 3.3.1, N-(Cycloheptylmethyl)-6-fluoro-2-[(3-hydroxyphenyl)methyl]-1H-benzimidazole-5-carboxamide], for which the activation at 3.33 µM was 95.8% and the EC50 worked out at 471 nM.

Turning to `O=C(NCC1CCCCCC1)c1ccc2[nH]c(Cc3cccc(O)c3)nc2c1F` [Example 3.3.2, N-(Cycloheptylmethyl)-4-fluoro-2-[(3-hydroxyphenyl)methyl]-1H-benzimidazole-5-carboxamide], the activation at 3.33 µM worked out at 90.2% and the EC50 is 598 nM.

As for `Cc1noc(C)c1Cc1nc2cc(NC(=O)CC3C4CC5CC(C4)CC3C5)ccc2[nH]1` (centres unmarked) [Example 3.4.1], the activation at 3.33 µM came to 116% and the EC50 was found to be 576 nM.

Regarding `CC(C)(C)OC(=O)NCCc1nc2cc(NC(=O)CC3C4CC5CC(C4)CC3C5)ccc2[nH]1` (centres unmarked) [Example 3.4], the activation at 3.33 µM worked out at 99.8% and the EC50 came out at 471 nM.

Regarding `CC(C)(C)CNC(=O)c1ccc2[nH]c(Cc3ccccc3)nc2c1` [Example 3.5, 2-Benzyl-N-(2,2-dimethylpropyl)-1H-benzimidazole-5-carboxamide], the activation at 3.33 µM was found to be 144% and the EC50 turned out to be 1020 nM.

On to `CC(C)(C)C(C)(C)NC(=O)c1ccc2[nH]c(Cc3ccccc3)nc2c1` [Example 3.5.1, 2-Benzyl-N-(1,1,2,2-tetramethylpropyl)-1H-benzimidazole-5-carboxamide], for which the activation at 3.33 µM came to 89.5% and the EC50 came out at 779 nM.
